What was measured:
[1] = system: isolated cardiac mitochondria; assay: Cardiac mitochondrial cardiolipin (CL) content and composition by electrospray ionization mass spectrometry; assay type: in vivo, male Wistar rats
Description: (§1) Experimental Design: The animal protocol was conducted according to the Guideline for the Care and Use of Laboratory Animals (NIH publication 85-23) and was approved by the University of Maryland School of Medicine Institutional Animal Care and Use Committee. Investigators were blinded to treatment when measurements were performed. The animals were maintained on a reverse 12-h light-dark cycle and all procedures were performed in the fed state between 3 and 6 h from the start of the dark phase. Two series of experiments were performed. In the initial studies (Series 1) male Wistar rats weighing 190-200 g were fed a standard low fat diet (CTRL) or modified standard diet containing DHA or EPA at 2.5% of total caloric intake, which corresponds to a human intake of approximately 5.5 g/day (calculated assuming an energy intake of 2000 kcal/day and 9 kcal/g of fat). The rats were maintained on the diet for 8 weeks. Following dietary treatment, rats were anesthetized with isoflurane, blood was drawn, and the heart was harvested for biochemical analysis and mitochondrial isolation. Plasma from these animals was analyzed for free fatty acids and triglyceride levels, and cardiac mitochondria for respiration, Ca^2+ retention capacity (an index of MPTP opening), VDAC and cyclophilin D, and membrane phospholipid composition as described below. […]
Mitochondrial Preparation: Mitochondria were isolated as previously described^228. […] The concentration of mitochondrial protein was measured by the Lowry method using bovine serum albumin as a standard.
(§2) Membrane Lipid Composition: Cardiac phospholipid fatty acid composition was assessed in a subset of animals from Series 1 (n=7-9/group) on isolated cardiac mitochondria homogenates by gas chromatography with a flame ionization detector according to a modification of the transesterification method as previously described^228. CL composition was assessed on isolated cardiac mitochondria by electrospray ionization mass spectrometry using 1,1′,2,2′-tetramyristoyl CL as an internal standard as previously described (n=9/group)^228,229, 230.

[2] = system: mitochondrial permeability transition pore (MPTP); assay: Ca2+ retention capacity (index of MPTP opening) in mitochondria from diet-treated rats, Series 1; assay type: in vivo, male Wistar rats
Description: (§3) Experimental Design: The animal protocol was conducted according to the Guideline for the Care and Use of Laboratory Animals (NIH publication 85-23) and was approved by the University of Maryland School of Medicine Institutional Animal Care and Use Committee. Investigators were blinded to treatment when measurements were performed. The animals were maintained on a reverse 12-h light-dark cycle and all procedures were performed in the fed state between 3 and 6 h from the start of the dark phase. Two series of experiments were performed. In the initial studies (Series 1) male Wistar rats weighing 190-200 g were fed a standard low fat diet (CTRL) or modified standard diet containing DHA or EPA at 2.5% of total caloric intake, which corresponds to a human intake of approximately 5.5 g/day (calculated assuming an energy intake of 2000 kcal/day and 9 kcal/g of fat). The rats were maintained on the diet for 8 weeks. Following dietary treatment, rats were anesthetized with isoflurane, blood was drawn, and the heart was harvested for biochemical analysis and mitochondrial isolation. Plasma from these animals was analyzed for free fatty acids and triglyceride levels, and cardiac mitochondria for respiration, Ca^2+ retention capacity (an index of MPTP opening), VDAC and cyclophilin D, and membrane phospholipid composition as described below. Following completion of Series 1, a second series of animal studies (Series 2) were performed to assess mitochondrial swelling using a light scattering assay, and the effects of different respiratory substrates on Ca^2+ retention capacity in mitochondria from control and DHA supplemented rats. Animals were treated for 10 weeks and were fed either CTRL or DHA (2.5% of total caloric intake).
(§4) Mitochondrial Preparation: Mitochondria were isolated as previously described^228. LV tissue (400-500 mg) was minced and homogenized in 1:10 cold modified Chappel-Perry buffer (100 mM KCl, 50 mM MOPS, 5 mM MgSO4, 1 mM ATP, 1 mM EGTA, 2 mg/ml BSA), and the homogenates were centrifuged at 500×g. Subsequent centrifugation allowed for separation and purification of the subsarcolemmal mitochondria. The concentration of mitochondrial protein was measured by the Lowry method using bovine serum albumin as a standard.

[3] = Plasma free fatty acids and triglycerides after dietary supplementation (Series 1); assay type: in vivo, male Wistar rats; conditions: 2.5% of caloric intake, 8 weeks, FIG. 7
Description: as §1, with “Following dietary treatment, rats were anesthetized with isoflurane, blood was drawn, and the heart was harvested for biochemical analysis and mitochondrial isolation.” left out
Metabolic and Biochemical Parameters: Free fatty acids and triglycerides were assessed in the plasma using commercially available kits (Wako, Richmond, Va.). […] The digitized image was analyzed with Odyssey® software.

[4] = system: isolated cardiac mitochondria; assay: Mitochondrial respiration (oxygen consumption, Clark-type electrode); assay type: in vivo, male Wistar rats; conditions: for P:O: measurements without oligomycin; for RCR: ratio of State 3 to State 4 rate with oligomycin
Description: as §3, §4
Mitochondrial respiration: Mitochondrial oxygen consumption was measured using a Clark-type oxygen electrode (Qubit Systems, Ontario, Canada). Mitochondria (0.25 mg protein) were suspended in 0.5 ml solution consisting of 100 mM KCl, 50 mM MOPS, 5 mM KH2PO4, 1 mM EGTA, and 0.5 mg fatty acid-free bovine serum albumin, at pH 7.4 and 37° C. State 3 (ADP-stimulated) and state 4 (non-phosphorylating) respiration were measured with glutamate+malate (10 and 5 mM, respectively), pyruvate+malate (10 and 5 mM, respectively) and palmitoylcarnitine+malate (40 μM and 5 mM, respectively) to assess respiration through complex I-IV, while succinate+rotenone (10 mM and 7.5 μM, respectively), were used to assess respiration through complex II-IV of the ETC exclusively. State 4 respiration was also measured in the presence of oligomycin to inhibit the mitochondrial ATP synthase.

[5] = system: isolated cardiac mitochondria; assay: Cardiac mitochondrial phospholipid fatty acid composition by gas chromatography; assay type: in vivo, male Wistar rats; conditions: Series 1, 8 weeks diet, mean ± SEM
Description: as §3, §4, §2

[6] = system: cyclophilin D; assay: Western blot of isolated mitochondria, densitometry; assay type: in vivo, male Wistar rats; conditions: CTRL 1.00 ± 0.08
Description: (§5) Metabolic and Biochemical Parameters: Free fatty acids and triglycerides were assessed in the plasma using commercially available kits (Wako, Richmond, Va.). Mitochondrial proteins were separated by electrophoresis in 4-12% NuPage gels, transferred onto a nitrocellulose membrane, and incubated with specific antibodies to cyclophilin D and voltage-dependent anion channel (VDAC) (1:10,000 and 1:5000, respectively, both from Mitosciences, Eugene, Oreg.). Fluorescence-conjugated secondary antibodies (IRDye 800, 1:10,000; LI-COR Bioscience) were used for incubation before the membranes were scanned with Odyssey® infrared imaging system (LI-COR Bioscience). The digitized image was analyzed with Odyssey® software.

[7] = system: VDAC1; assay: as above; assay type: in vivo, male Wistar rats; conditions: CTRL 1.00 ± 0.13
Description: as §5

[8] = system: VDAC2; assay: as above; assay type: in vivo, male Wistar rats; conditions: CTRL 1.00 ± 0.15
Description: as §5

[9] = target: T1, tumor necrosis factor (Homo sapiens, UniProt P01375); conditions: direct cytokine blockade; cited from earlier work
T1 construct: host or cells: heart-failure patients
T1 sequence (P01375 77-233 limits assumed): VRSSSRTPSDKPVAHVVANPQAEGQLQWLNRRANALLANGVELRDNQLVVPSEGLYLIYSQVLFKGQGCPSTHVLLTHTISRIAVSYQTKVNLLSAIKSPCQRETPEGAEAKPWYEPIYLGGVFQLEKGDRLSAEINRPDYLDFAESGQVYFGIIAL

For `CC/C=C\C/C=C\C/C=C\C/C=C\C/C=C\CCCC(=O)O` [EPA, eicosapentanoic acid], the “total CL content” value ([1]; Series 1, 8 weeks diet, CTRL 10.7±0.8, DHA vs CTRL p<0.08) was 11.1±0.8 nmols/mg mito prot, the “CL species containing one ARA and three linoleic acid moieties (ARA1L3CL)” value ([1]; Series 1, compared to CTRL, FIG. 9) was “decrease” and the “Ca2+ required to elicit MPTP” value ([2]; glutamate + malate, without CsA, CTRL 83.0±8.7) was 80.8±4.9 nmol Ca^2+/mg mito prot. For the same molecule, the “Ca2+ required to elicit MPTP” value ([2]; mitochondria of diet group with addition of 100 nM CsA) was 130.6±12.8 nmol Ca^2+/mg mito prot, the “plasma free fatty acid concentration compared to CTRL” value [3] was “lowered” and the “plasma triglyceride concentration compared to CTRL” value [3] was “lowered”. For the same molecule, the “State 4 (+ oligomycin) respiration” value ([4]; Glutamate + Malate) was 19.1 ± 3.3 ng atoms O · mg^−1 · min^−1, the “State 4 (− oligomycin) respiration” value ([4]; Glutamate + Malate) was 32.1 ± 4.8 ng atoms O · mg^−1 · min^−1 and the “State 3 respiration” value ([4]; Glutamate + Malate, mean ± SEM) was 119.3 ± 13.4 ng atoms O · mg^−1 · min^−1. The “P:O” value ([4]; Glutamate + Malate) was 2.76 ± 0.23, the RCR ([4]; Glutamate + Malate) was 7.0 ± 1.0 and the “State 3 respiration” value ([4]; Palmityl-carnitine + Malate) was 243.7 ± 28.1 ng atoms O · mg^−1 · min^−1. The “State 4 (+ oligomycin) respiration” value ([4]; Palmityl-carnitine + Malate) was 29.7 ± 3.8 ng atoms O · mg^−1 · min^−1, the “State 4 (− oligomycin) respiration” value ([4]; Palmityl-carnitine + Malate) was 59.4 ± 7.0 ng atoms O · mg^−1 · min^−1 and the “P:O” value ([4]; Palmityl-carnitine + Malate) was 2.57 ± 0.14. For the same molecule, the RCR ([4]; Palmityl-carnitine + Malate) was 9.5 ± 1.8, the “State 3 respiration” value ([4]; Pyruvate + Malate) was 221.2 ± 31.0 ng atoms O · mg^−1 · min^−1 and the “State 4 (+ oligomycin) respiration” value ([4]; Pyruvate + Malate) was 43.3 ± 5.2 ng atoms O · mg^−1 · min^−1. The “State 4 (− oligomycin) respiration” value ([4]; Pyruvate + Malate) was 63.5 ± 6.4 ng atoms O · mg^−1 · min^−1, the “P:O” value ([4]; Pyruvate + Malate) was 2.44 ± 0.30 and the RCR ([4]; Pyruvate + Malate) was 5.1 ± 0.3. For the same molecule, the “State 3 respiration” value ([4]; Succinate + Rotenone) was 307.2 ± 37.1 ng atoms O · mg^−1 · min^−1, the “State 4 (+ oligomycin) respiration” value ([4]; Succinate + Rotenone) was 80.3 ± 11.7 ng atoms O · mg^−1 · min^−1 and the “State 4 (− oligomycin) respiration” value ([4]; Succinate + Rotenone) was 102.1 ± 11.5 ng atoms O · mg^−1 · min^−1. The “P:O” value ([4]; Succinate + Rotenone) was 1.48 ± 0.08, the RCR ([4]; Succinate + Rotenone) was 4.1 ± 0.5 and the “decrease of state 4 respiration” value ([4]; pyruvate+malate, absence and presence of oligomycin, vs control, p<0.05) was “no effect”. For the same molecule, the “increase of RCR” value ([4]; pyruvate+malate, vs control, p<0.05) was “no effect”, the “Mitochondrial phospholipid C18:0” value [5] was 19.8 ± 0.8 molar percent of total phospholipid fatty acid and the “Mitochondrial phospholipid C18:1n7” value [5] was 4.2 ± 0.2 molar percent of total phospholipid fatty acid. For the same molecule, the “Mitochondrial phospholipid C18:1n9” value [5] was 11.8 ± 1.0 molar percent of total phospholipid fatty acid, the “Mitochondrial phospholipid C18:2n6” value [5] was 22.4 ± 0.8 molar percent of total phospholipid fatty acid and the “Mitochondrial phospholipid Total ω-3 PUFA” value [5] was 14.3 ± 0.3 molar percent of total phospholipid fatty acid. The “Mitochondrial phospholipid C16:0” value ([5]; n = 7-8/group) was 10.8 ± 0.6 molar percent of total phospholipid fatty acid, the “Mitochondrial phospholipid C16:1” value ([5]; BQL = below the quantifiable limit (limit of detection = 0.41%)) was 4.5 ± 1.8 molar percent of total phospholipid fatty acid and the “Mitochondrial phospholipid C20:3n6” value ([5]; BQL in control) was 1.1 ± 0.2 molar percent of total phospholipid fatty acid. For the same molecule, the “Mitochondrial phospholipid C22:6n3” value ([5]; DHA) was 8.3 ± 0.2 molar percent of total phospholipid fatty acid, the “Mitochondrial phospholipid C20:5n3” value ([5]; EPA, BQL in control) was 6.0 ± 0.2 molar percent of total phospholipid fatty acid and the “Mitochondrial phospholipid C20:4n6” value ([5]; arachidonic acid (ARA)) was 9.8 ± 0.8 molar percent of total phospholipid fatty acid. The “Cyclophilin D protein, densitometry” value [6] was 1.00 ± 0.08, the “VDAC 1 protein, densitometry” value [7] was 0.87 ± 0.16 and the “VDAC 2 protein, densitometry” value [8] was 0.94 ± 0.17.

For ETANERCEPT, the “efficacy in HF patients” value [9] is listed as “not effective”.

Reference: patent US20120046363A1, “DOCOSAHEXAENOIC ACID FOR THE TREATMENT OF HEART FAILURE” (University of Maryland, Baltimore, priority 2009, published 2012)
